According to patent US12398355B2, “Micro physiological model for neuronal and muscular diseases and disorders” (Massachusetts Institute of Technology, priority 2019, dated 2025):

How the values were obtained:
in vitro co-culture = experiment: Side effects of high drug concentrations in in vitro co-culture; assay type: cell-based; details: in vitro co-culture condition
[1] = tested on: ALS motor unit (iALS-MN spheroid and iPSC-derived skeletal muscle fiber bundle); experiment: Drug treatment of ALS motor unit model, muscle contraction by optical stimulation; assay type: cell-based, human; details: 1-Hz optical stimulation, n=180; untreated ALS ~32.3%
Method: Epifluorescence and confocal images were acquired using a Zeiss Axiovert 200 microscope and an Olympus FV-1000 confocal microscope, respectively. 3D reconstruction and analysis of confocal images were performed with IMARIS software (Bitplane). Muscle contraction measurement was performed in a stage-top incubator (INUBG2TF-WSKM-SET, Tokai Hit) on Axiovert 200, and image sequences were captured using AxioVision. Automated tracking of the local deformation of the skeletal muscle cells and deflection of the pillars upon light excitation were carried out using ImageJ and Python script with an OpenCV package. Formulas for calculating muscle contraction force from pillar displacements include:
To avoid single-cell attachment to the glass bottom, the microfluidic device was incubated with 4% Pluronic F-127 (Sigma) in the incubator for 1 hour, rinsed with distilled water, and dried. […]
hESC-derived NSCs and iPSC-derived NSCs from a patient with sporadic ALS were infected with an AAV-CAG-ChR2H134R-tdTomato-WPRE plasmid to express a mutated variant of the light-sensitive ion channel, channelrhodopsin-2H134R. […] The cells were cultured for 4 days, expanded for another 3 days, and sorted by fluorescence-activated cell sorting (BD Biosciences, FACSAria II) with strong expression of tdTomato. […]

[2] = tested on: 3D motor unit model (hESC-derived MN spheroid and iPSC-derived skeletal muscle fiber bundle with NMJ); assay type: cell-based, human
[3] = tested on: 3D motor unit model (MN spheroid and skeletal muscle fiber bundle)

In the case of `COc1cc(Nc2c(C#N)cnc3cc(OCCCN4CCN(C)CC4)c(OC)cc23)c(Cl)cc1Cl` [bosutinib], the “concentration that can cause side effects” value (in vitro co-culture) was “over 800 uM”.

`CO[C@H]1C[C@@H]2CC[C@@H](C)[C@@](O)(O2)C(=O)C(=O)N2CCCC[C@H]2C(=O)O[C@H]([C@H](C)C[C@@H]2CC[C@@H](O)[C@H](OC)C2)CC(=O)[C@H](C)/C=C(\C)[C@@H](O)[C@@H](OC)C(=O)[C@H](C)C[C@H](C)/C=C/C=C/C=C/1C` [rapamycin] was tested, and the “concentration that can cause side effects” value (in vitro co-culture) was “over 1 uM” and the “missed muscle contractions after light stimulation” value [1] was roughly 16.1%.

With `NC1=N[C@H](O)[C@H]2[C@H]3O[C@]4(O)O[C@@H]([C@@H](O)[C@@]2(N1)[C@@H]4O)[C@]3(O)CO` [TTX, tetrodotoxin] the “muscle contraction after rinsing away the TTX” value [2] was “partially recovered” and the “muscle contraction under TTX” value [2] was “completely prevented muscle contraction”.

With α-bungarotoxin [αBTX] the “muscle contraction in the presence of αBTX” value [2] was “completely inhibited”.

In the case of `N[C@@H](CCC(=O)O)C(=O)O` [glutamic acid], the average contraction force [3] was roughly 0.5 pN, the “average frequency of muscle contractions” value [3] was 0.7 Hz and the “morphology after prolonged treatment” value [3] was “neurite regression and muscle atrophy”. For the same compound, the “muscle contraction after prolonged treatment” value [3] was “no muscle contraction was observed”, the muscle contraction force [3] was “relatively decreased” and the muscle contraction frequency [3] was “dropped”. The “muscle contraction with chemical stimulation” value [3] was “significant loss of function”, the “muscle contraction with electrical stimulation” value [3] was “no significant difference” and the “neurotoxic effect / myotoxicity” value [3] was “mainly caused a neurotoxic effect but no observable myotoxicity”.
